{"source": "patent US20240358721A1", "about": "“GASDERMIN-D INHIBITORS AND USES THEREOF FOR TREATING PULMONARY VASO-OCCLUSION” (UNIVERSITY OF PITTSBURGH-OF THE COMMONWEALTH SYSTEM OF …, priority 2021, published 2024)", "system": "SCD-Selp−/− mice", "assay": "qFILM detection of circulating NETs arriving in the lung microcirculation, SCD-Selp−/− mice", "type": "in vivo, mouse", "conditions": "IV 10 μmole/kg oxy-Hb with 10 mg/kg inhibitor vs oxy-Hb alone, significant", "description": "(FIG. 5A) Experimental scheme: SCD or SCD-Selp^−/− mice were IV administered 10 μmole/kg oxy-Hb (10 oxy-Hb) without or with 10 mg/kg GSDMD inhibitors LDC75591 or Disulfiram. In FIGS. 5C-5D, venous blood was processed to generate PPP and cNETs detected in PPP using Imaging Flow Cytometry. Imaging Flow Cytometry data was quantified to estimate concentration of cNETs (#cNETs/μl of plasma). In FIGS. 5B, and 5E-5F, quantitative fluorescence intravital lung microscopy (qFILM) was used to detect arrival of circulating NETs (cNETs) within the lung microcirculation. Number of cNETs entering per FOV over a 1-minute duration (#cNETs/FOV/min) were quantified. In FIGS. 5G-5J, qFILM was used to assess the absence or presence of pulmonary vaso-occlusion using the experimental strategy described in FIG. 1A. Pulmonary vaso-occlusions (PVOs) were compared between treatment groups using following two parameters: Number of PVOs per Field of View (#PVOs/FOV) and number of large PVOs (with area>1000 μm^2) per FOV. […]\nQuantitative fluorescence intravital lung microscopy (qFILM) has been used widely for in vivo assessment of pulmonary vasoocclusion in mice with SCD [Bennewitz M F et al., (2017); Vats R, Brzoska T, Bennewitz M F, et al. (2020); Vats R, Tutuncuoglu E, Pradhan-Sundd T, Tejero J, Shaw G D, Sundd P. (2020); Bennewitz M F, Tutuncuoglu E, Gudapati S, et al. (2020)] […]", "data": [{"molecule": "COc1ccccc1-c1cc2n(n1)Cc1ccc(NC(C)=O)cc1OC2", "note": "[LDC7559]", "values": [{"measurement": "#cNETs/FOV/min in the lung, less than 10 oxy-Hb alone", "result": 4, "unit": "folds"}]}]}
